Test results: patent publication US10449206B2, “Indolealkylamino-withasteroid conjugates and method of use” (Natreon, Inc., priority 2011, dated 2019)
Counter-ions that a name gives are not always drawn. Marks after values point to notes of the source that are not given here.

Columns and labels:
[1] = molecular target: acetylcholinesterase (AChE) (Homo sapiens, UniProt P22303); assay: In vitro acetylcholinesterase (AChE) activity assay, method of Ellman et al. with acetylthiocholine iodide as substrate; type: biochemical; conditions: for IC50: Mean ± SD of three replicates, synthetic conjugates, read-out: Acetylcholinesterase inhihitory activity IC50 (converted)
Description: The acetylcholinesterase (AChE) assay was performed by the method of Ellman et al., with minor modification, using acetylthiocholine Iodide as a substrate (G. L. Ellman, et al., “A new and rapid colorimetric determination of acetylcholinesterase activity,” Biochem. Pharmacol. (1961) 7: 88-95). Ellman's reaction mixture was made from a combination of 10 mM Acetylthiocholine iodide and 0.5 mM 5,5′-dithio-bis-(2-nitrobenzoic acid) in a 0.05 M sodium phosphate buffer (pH 7.2). The rates of hydrolysis by AChE were monitored spectrophotometrically using a 96-well microtiter plate reader. Each test sample (10 μl) and 0.05 M sodium phosphate buffer (30 μl) was mixed with the enzyme solution (10 μl). An Ellman's reaction mixture (50 μl) was further added to give a final volume of 100 μl, and the mixture was incubated at 37° C. for 30 min. Absorbance at 450 nm was recorded immediately after adding the Ellman's reaction mixture. Reading was repeated for 10 min at 2 min intervals to verify that the reaction occurred linearly. Blank reaction was measured by substituting saline for the enzyme (Y. K. Chung, et al., “Inhibitory effect of ursolic acid purified from Origanum majorana L. on the acetylcholinesterase,” Mol. Cells (2001) 11: 137-143).
The acetylcholinesterase (AChE) assay was performed by the method of Ellman et. al., with minor modification, using acetylthiocholine Iodide as a substrate (G. L. Ellman, et al., “A new and rapid colorimetric determination of acetylcholinesterase activity,” Biochem. Pharmacol. (1961) 7: 88-95). Ellman's reaction mixture was made from a combination of 10 mM Acetylthiocholine iodide and 0.5 mM 5,5′-dithio-bis-(2-nitrobenzoic acid) in a 0.05 M sodium phosphate buffer (pH 7.2). The rates of hydrolysis by AChE were monitored spectrophotometrically using a 96-well microtiter plate reader. Each test sample (10 μl) and 0.05 M sodium phosphate buffer (30 μl) was mixed with the enzyme solution (10 μl). An Ellman's reaction mixture (50 μl) was further added to give a final volume of 100 μl, and the mixture was incubated at 37° C. for 30 min. Absorbance at 450 nm was recorded immediately after adding the Ellman's reaction mixture. Reading was repeated for 10 min at 2 min intervals to verify that the reaction occurred linearly. Blank reaction was measured by substituting saline for the enzyme (Y. K. Chung, et al., “Inhibitory effect of ursolic acid purified from Origanum majorana L. on the acetylcholinesterase,” Mol. Cells (2001) 11: 137-143).

[2] = test system: Scopolamine-induced amnesic mice; assay: Scopolamine hydrobromide-induced amnesia, transfer latency on elevated plus maze; conditions: for Transfer Latency, Day 8: learning trial; for % Decrease in Transfer Latency, Mean ± SD: Table 16
Description: The elevated plus maze is used to measure the memory learning activity in mice; however, transfer latency, i.e., the time elapsed between the movement of the animal from an open to an enclosed arm was markedly shortened if the animal had previously experienced entering open and closed arms.
Retention was recorded after 24 hrs (9th day) and after an interval of one week (16th day).
Drug protocol. The animals were divided into 7 groups (Group I-VII) of eight animals in each group. Group I received vehicle (0.3% CMC) only and served as vehicle control. Groups II-VII were treated with the respective test drugs, as per the details mentioned in Table 1 below, for 16 days. […] Transfer Latency was recorded after 45 minutes of the drug administration on 8th day (learning trial) and 24 hrs (9th day) and one week (16th day) after learning trial.
Retention in elevated plus maze test was used to assess the memory functions in test animals. The plus maze consists of two open opposite arms, (50×10 cm) length×width, crossed with two enclosed arms of same dimensions with walls 40 cm high. The arms are connected with a central square, (10×10 cm) to give the apparatus a plus-sign appearance. The maze was kept elevated 50 cm above the floor in a dimly lit room. On day 8, mice were individually placed on far end of one of the open arms facing away from the center and transfer latency (TL) on day 8 was recorded. TL is the time taken by the mouse to move into any one of the covered arms with all its four legs. […] On day 9, the mice were again placed on the far end of the open arm and time taken by the mice to enter the enclosed arm, transfer latency (TL) day 9, was recorded. Similarly after an interval of one week, on day 16, the transfer latency (TL) day 16 was again recorded.
The retention scores were obtained for each animal by calculating percent decrease in latency period by the formula: % decrease in TL=(L1−L0/L0)×100
where, L0=initial transfer latency period in seconds, and L1=transfer latency after 24 hrs, or one week.

[3] = test system: brain tissue Malondialdehyde (MDA); type: in vivo, Swiss Albino mice; conditions: day 16; test sample p.o. (50/20/30/1/1 mg/kg) + SH 0.5 mg/kg i.p.; mean ± SEM, n=4
Excerpt: Estimation of lipid peroxidation.
Alzheimer's disease (AD) is an irreversible neurodegenerative disorder having symptoms including confusion, memory loss, and mood swings. The beta-amyloid peptide (BAP), with 39-42 amino acid residues, plays a significant role in the development of AD. Although there is no cure for AD, it can be managed with available drugs, but only to a small degree in a small subset of patients. […] In this study, the lipid peroxidation levels in brains of different treatment groups were measured by estimating the brain tissue Malondialdehyde (MDA) concentration. 5.

mice = assay: Open-field exploratory behavior test, anxiety paradigm; parameters: species or system Swiss Albino mice; conditions: mouse, in vivo
Description: Drug preparation and administration of doses.
Study design. The behavioral tests conducted with multiple seven-dose schedules. The mice were tested only once after the completion of the drug treatment schedule in the elevated plus maze and open field. The studies were carried out in a sound proof room to avoid disturbances to the animals during the behavioral studies. Exposure to a novel environment is associated with emotional disturbance and anxiety. […] Anxiety is also associated with augmented autonomic activity resulting in increased defecation and urination. All these effects are accentuated by anxiogenic drugs and attenuated by anxiolytics. Standard screening procedures such as open field method and elevated plus maze test were used to screen the anxiolytic effect of drugs in comparison with a standard drug, Diazepam.
Open-field exploratory behavior test. The open field exploratory apparatus is similar to that of Bronstein (P. M. Bronstein, “Open field behaviour of the rat as a function of age: cross sectional and longitudinal investigations,” J. Comp. Physiol. Psycol. (1972) 80: 335-341). It is made of plywood and consists of squares (61×61 cm) with high walls. […] The ratio between the number of times the animal crossed the central and the number of times the animal crossed the peripheral square is calculated.

[4] = Example 7B, synthetic conjugates 1 and 5 mg/kg p.o. 16 days
[5] = Table 15, conjugate 1 mg/kg p.o. + SH 0.5 mg/kg i.p., mean ± SD, n=8
[6] = Table 15, conjugate 1 mg/kg p.o., mean ± SD, n=8
[7] = Table 15, conjugate 5 mg/kg p.o. + SH 0.5 mg/kg i.p., mean ± SD, n=8
[8] = Table 15, conjugate 5 mg/kg p.o., mean ± SD, n=8
[9] = after 24 h (day 9), conjugate 1 mg/kg p.o. + SH 0.5 mg/kg i.p., n=8
[10] = after 24 h (day 9), conjugate 5 mg/kg p.o. + SH 0.5 mg/kg i.p., n=8
[11] = Table 17, after 1 week (day 16), conjugate 1 mg/kg p.o. + SH 0.5 mg/kg i.p., n=8
[12] = Table 17, after 1 week (day 16), conjugate 5 mg/kg p.o. + SH 0.5 mg/kg i.p., n=8
[13] = Table 2, SH 0.5 mg/kg i.p. alone, mean ± SEM
[14] = Table 15, SH 0.5 mg/kg i.p. alone, mean ± SD

Chain of acetylcholinesterase (AChE) (P22303 32-614, species assumed): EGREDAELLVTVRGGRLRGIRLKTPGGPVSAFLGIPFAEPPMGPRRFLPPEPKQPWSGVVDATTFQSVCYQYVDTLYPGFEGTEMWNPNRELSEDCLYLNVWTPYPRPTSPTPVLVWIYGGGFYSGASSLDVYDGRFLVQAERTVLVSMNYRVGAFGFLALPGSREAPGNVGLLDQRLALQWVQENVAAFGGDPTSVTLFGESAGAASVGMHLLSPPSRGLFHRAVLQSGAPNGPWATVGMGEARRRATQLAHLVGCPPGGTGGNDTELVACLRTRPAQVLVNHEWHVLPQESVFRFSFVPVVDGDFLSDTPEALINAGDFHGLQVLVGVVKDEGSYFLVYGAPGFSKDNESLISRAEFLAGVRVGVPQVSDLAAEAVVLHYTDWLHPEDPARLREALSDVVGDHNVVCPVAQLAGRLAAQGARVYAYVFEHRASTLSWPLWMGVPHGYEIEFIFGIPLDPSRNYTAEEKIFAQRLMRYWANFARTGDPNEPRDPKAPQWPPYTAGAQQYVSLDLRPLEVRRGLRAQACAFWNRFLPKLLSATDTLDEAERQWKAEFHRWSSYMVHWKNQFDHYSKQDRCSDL

With `COc1ccc2[nH]cc(CCNC3CC(=O)[C@]4(C)[C@H]5CC[C@]6(C)[C@@H]([C@H](C)[C@H]7CC(C)=C(CO)C(=O)O7)CC[C@H]6[C@@H]5C[C@H]5O[C@]54[C@H]3O)c2c1` (stereo partly shown) the “in vitro acetylcholinesterase inhibitory activity (in words)” value [1] was “good dose-dependent in-vitro acetylcholinesterase inhibitory activity”, the IC50 [1] was 149 µM and the “effect on Scopolamine-induced amnesia (in words)” value [2, 4] was “significantly attenuated and reversed the Scopolamine-induced amnesia”. The “Transfer Latency, Day 9” value [2, 5] was 76.63 ± 33.95 s, the “Transfer Latency, Day 16” value [2, 5] was 43.13 ± 12.43 s and the “Transfer Latency, Day 8” value [2, 6] was 139.1 ± 25.05 s. The “Transfer Latency, Day 9” value [2, 7] was 37.25 ± 4.43^bb s, the “Transfer Latency, Day 16” value [2, 7] was 18.00 ± 4.14^bbb s and the “Transfer Latency, Day 8” value [2, 8] was 141.00 ± 35.66 s. For the same molecule, the “% Decrease in Transfer Latency, Mean ± SD” value (“% Decrease … Mean ± SD” below) [2, 9] was 45.62 ± 16.51%, the “% Decrease … Mean ± SD” value [2, 10] was 72.18 ± 6.60. % and the “% Decrease in Transfer Latency, Mean ± SEM” value (“% Decrease … Mean ± SEM” below) [2, 11] was 69.13 ± 5.38%. For the same molecule, the “% Decrease … Mean ± SEM” value [2, 12] was 85.79 ± 9.92^bb %.
`CN1[C@@H]2C[C@@H](OC(=O)[C@H](CO)c3ccccc3)C[C@H]1[C@@H]1O[C@@H]12` [SH, Scopolamine Hydrobromide, reference compound] was tested, and the “induction of amnesia (in words)” value ([2]; SH 0.5 mg/kg i.p. alone vs vehicle) was “produced amnesia in animals”, the “Transfer Latency, Day 8” value ([2]; Table 2, SH 0.5 mg/kg i.p. alone group, mean ± SEM) was 171.50 ± 16.08 s and the “Transfer Latency, Day 9” value [2, 13] was 143.90 ± 15.30 s. The “Transfer Latency, Day 16” value [2, 13] was 133.10 ± 15.95 s, the “% Decrease … Mean ± SEM” value ([2]; Table 3, after 24 h (day 9), SH 0.5 mg/kg i.p. alone) was 14.91 ± 5.75% and the “% Decrease … Mean ± SEM” value ([2]; Table 4, after 1 week (day 16), SH 0.5 mg/kg i.p. alone) was 22.11 ± 5.03%. For the same molecule, the “Transfer Latency, Day 8” value ([2]; Table 15, SH 0.5 mg/kg i.p. alone group, mean ± SD) was 160.00 ± 66.68 s, the “Transfer Latency, Day 9” value [2, 14] was 106.00 ± 42.81^aa s and the “Transfer Latency, Day 16” value [2, 14] was 48.17 ± 12.73 ^aaa s. For the same molecule, the “% Decrease … Mean ± SD” value ([2]; after 24 h (day 9), SH 0.5 mg/kg i.p. alone) was 29.86 ± 17.79% and the “% Decrease … Mean ± SEM” value ([2]; Table 17, after 1 week (day 16), SH 0.5 mg/kg i.p. alone) was 63.54 ± 18.87^aa %.
`CC1=C(CO)C(=O)O[C@@H]([C@@H](C)[C@H]2CC[C@H]3[C@@H]4C[C@H]5O[C@]56[C@@H](O)C(NCCc5c[nH]c7ccccc57)CC(=O)[C@]6(C)[C@H]4CC[C@]23C)C1` (stereo partly shown) [Tryptamino-withaferin-A conjugate] was tested, and the “in vitro acetylcholinesterase inhibitory activity (in words)” value [1] was “good dose-dependent in-vitro acetylcholinesterase inhibitory activity”, the IC50 [1] was 56.1 µM and the “effect on Scopolamine-induced amnesia (in words)” value [2, 4] was “significantly attenuated and reversed the Scopolamine-induced amnesia”. For the same molecule, the “Transfer Latency, Day 9” value [2, 5] was 56.17 ± 21.99^b s, the “Transfer Latency, Day 16” value [2, 5] was 16.50 ± 9.52^bbb s and the “Transfer Latency, Day 8” value [2, 6] was 178.00 ± 117.90 s. For the same molecule, the “Transfer Latency, Day 9” value [2, 7] was 51.67 ± 15.28 ^b s, the “Transfer Latency, Day 16” value [2, 7] was 15.17 ± 10.09^bbb s and the “Transfer Latency, Day 8” value [2, 8] was 159.00 ± 126.20 s. The “% Decrease … Mean ± SD” value [2, 9] was 54.97 ± 27.54%, the “% Decrease … Mean ± SD” value [2, 10] was 59.93 ± 13.31% and the “% Decrease … Mean ± SEM” value [2, 11] was 88.10 ± 6.17^b %. The “% Decrease … Mean ± SEM” value [2, 12] was 85.72 ± 11.96^bb %.
In the case of `CC1=C(CO)C(=O)O[C@@H]([C@@H](C)[C@H]2CC[C@H]3[C@@H]4C[C@H]5O[C@]56[C@@H](O)C=CC(=O)[C@]6(C)[C@H]4CC[C@]23C)C1` [Withaferin-A, Withaferin A, reference compound], the “MDA Content, brain tissue” value [3] is reported as 4.77 ± 0.07 nmol/mL, the “anxiolytic effect in open field test (in words)” value (mice) is reported as “did not show any anxiolytic effect” and the “in vitro acetylcholinesterase inhibitory activity (in words)” value [1] is reported as “only feeble inhibitory activity”. The “effect on Scopolamine-induced amnesia (in words)” value ([2]; Example 4A, WS extract and fractions p.o. 16 days) was “did not protect from or attenuate the Scopolamine-induced amnesia”, the “Transfer Latency, Day 9” value ([2]; Table 2, 24 h after SH 0.5 mg/kg i.p., test sample p.o. (50/20/30/1/1 mg/kg), mean ± SEM, n=8) was 124.00 ± 13.27 s and the “Transfer Latency, Day 8” value ([2]; Table 2, test sample p.o. daily (WS-74 50, Ace Sol 20, Ace Insol 30, IAEF-A 1, Withaferin-A 1 mg/kg), mean ± SEM, n=8) was 180.40 ± 8.04 s. For the same molecule, the “Transfer Latency, Day 16” value ([2]; Table 2, one week after SH 0.5 mg/kg i.p., test sample p.o. 16 days (50/20/30/1/1 mg/kg), mean ± SEM, n=8) was 114.90 ± 13.10 s, the “% Decrease … Mean ± SEM” value ([2]; Table 3, after 24 h (day 9), test sample p.o. (50/20/30/1/1 mg/kg) + SH 0.5 mg/kg i.p., n=8) was 29.28 ± 9.43% and the “% Decrease … Mean ± SEM” value ([2]; Table 4, after 1 week (day 16), test sample p.o. (50/20/30/1/1 mg/kg) + SH 0.5 mg/kg i.p., n=8) was 34.33 ± 9.30%.
